# Earlier results in publication PMC8491460 (Pharmacology Research & Perspectives, 2021).
# Counter-ions that a name gives are not always drawn.
# Columns and labels:
# [1] = test system: patients with metastatic melanoma
# [2] = test system: NK cells
# [3] = test system: patients with moderate to severe atopic dermatitis; conditions: 30 mg administered orally for 8 weeks
# [4] = test system: Colorectal cancer patients; conditions: 8.8 or 1.2 g per day oral, admission to 10th postoperative day
# [5] = test system: patients with advanced RCC; conditions: IFNα 3–6 MIU s.c. thrice/week, 800 mg cimetidine, 10 mg meloxicam, 4 mg candesartan or perindopril
# [6] = test system: human 1205Lu melanoma tumor; conditions: 1 mg/kg daily s.c. for 30 days
# [7] = test system: murine EL4 lymphomas; conditions: 75 mg/kg i.p. three times a week for 2 weeks
# [8] = test system: CD11b^+Gr1^+ immature myeloid cells; conditions: 0.8 mg/kg i.p. per day for 20 days
# [9] = test system: EL4 lymphoma
# [10] = test system: MC‐38 colon carcinoma
# [11] = test system: patients with high‐grade non‐Hodgkin lymphoma; conditions: 3 MIU IFNα, 1.5 mg/kg IL‐2, and 0.5 mg histamine s.c. 1–2 times daily, 5 days a week
# [12] = test system: patients with metastatic RCC
# [13] = test system: BN‐175 tumors; conditions: 40 µg melphalan, 1 mg histamine, and 50 µg IL‐2 in 5 ml perfusate
# [14] = clinical trials, adjuvant to IL‐2 immunotherapy
# [15] = test system: breast cancer models E0771 and 4T1; conditions: 8 mg/kg in drinking water; E0771 and 4T1, respectively
# [16] = test system: uncontrolled, eosinophilic asthma; conditions: 30 mg per day for 24 weeks
# [17] = test system: patients with moderate‐to‐severe psoriasis; conditions: 30 and 60 mg per day
# [18] = test system: rheumatoid arthritis; conditions: 100 mg once daily orally for 12 weeks, phase IIa
# [19] = test system: rheumatoid arthritis; conditions: phase IIb trial
# [20] = histamine 75 µg/mouse i.p., 100–240 µg/mouse of each antibody
# [21] = histamine 1500 µg/mouse with anti‐PD‐1/anti‐PD‐L1
# [22] = histamine and anti‐PD‐1/anti‐PD‐L1
compound,measurement,setting,value
CN(C)/N=N/c1[nH]cnc1C(N)=O [Dacarbazine],overall response rates,[1],16%
"NCCc1c[nH]cn1 [HDC, histamine dihydrochloride]",ROS production by M4/M5 cells and apoptosis in adjacent NK cells,[2],inhibited
CN[C@@H]1CCN(c2cc(NCC3CC3)nc(N)n2)C1 [adriforant],eczema and severity,[3],improved eczema and severity
same,tolerability,[3],well tolerated
CN/C(=N/CCSCc1nc[nH]c1C)NC#N [cimetidine],CD19^+ B cells in blood samples,[4],elevated levels
same,responses,[5],favorable responses
"NCCc1c[nH]cn1 [histamine, 2‐(4‐imidazolyl)‐ethylamine]",neutrophil‐to‐lymphocyte ratio infiltrate,[6],decreased
same,tumor growth and neovascular formation,[6],reduced
same,tumor‐infiltrating DCs,[7]; WT mice,increased
same,growth of murine EL4 lymphomas,[7]; WT mice but not NOX2‐deficient mice,reduced
same,ability of immature myeloid cells to support the growth of tumor allografts,[8],suppressed
same,differentiation of CD11b^+Gr1^+ immature myeloid cells,[8]; through H1 receptor and H2 receptor,induced their terminal differentiation into monocytes and neutrophils
same,accumulation and immunosuppressive features of MDSCs,[9]; 75 µg/mouse i.p. three times a week,diminished
same,tumor growth,[9]; 75 µg/mouse i.p. three times a week starting 1 day before tumor inoculation,diminished tumor growth
same,expression of PD‐L1 on MDSCs or PD‐1 on CD8^+ T cells,"[9]; EL4 tumor‐bearing mice, histamine",did not alter
same,anti‐tumor efficacy of immune checkpoint blockade with anti‐PD‐1/anti‐PD‐L1,[9]; [20],improved
same,fraction of CD8^+ T cells displaying an effector phenotype,[9]; [21],slightly increased
same,"intra‐tumoral proportion of MDSCs, or T and NK cells",[9]; [21],did not affect
same,anti‐tumor efficacy of immune checkpoint blockade with anti‐PD‐1/anti‐PD‐L1,[10]; [20],improved
same,MC‐38 tumor growth,[10]; histamine 1500 µg/mouse i.p. 3 times a week and anti‐PD‐1/anti‐PD‐L1,strongly reduced
same,fraction of CD8^+ T cells with an effector phenotype,[10]; [22],raised significantly
same,fraction of intra‐tumoral CD8^+ T cells,[10]; [22],tending to increase
same,intra‐tumoral NK cells,[10]; [22],decreased
same,percentage of intra‐tumoral CD4^+ T cells,[10]; [22],not altered
same,frequency of cytokine‐producing T cells and NK‐cell‐mediated cytotoxicity,[11],significant increases
same,tolerability,[12]; 1 mg HDC s.c. b.i.d. with IFNα 3 MIU and IL‐2 2.4 MIU/m^2,well tolerated
same,"TILs, blood leukocyte count, f‐chain expression, or cytotoxicity",[12]; similar treatment scheme,did not influence
same,response,[13],no improved response
same,tolerability,[14],generally well tolerated
CNC(=C[N+](=O)[O-])NCCSCc1ccc(CN(C)C)o1 [ranitidine],primary tumor growth and metastasis,[15],consistently reduced
Cc1cc(C)c2nc(-c3cnc(NCCCC4CCN(C)CC4)nc3C)[nH]c2c1 [toreforant],"improvement of uncontrolled, eosinophilic asthma",[16],failed to improve
same,response versus placebo,[17],greater response than placebo
same,signs and symptoms of rheumatoid arthritis,[18],reduced
same,confirmation of the reduction of signs and symptoms,[19],could not be confirmed
IL‐2: interleukin‐2 immunotherapeutic cytokine,overall response rates,[1],16%
